Experimental data reported in patent US9612240B2, “Biomimetic chemical sensors using nanoelectronic readout of olfactory receptors” (The Trustees Of The University Of Pennsylvania, priority 2010, dated 2017).
Values joined by “and” are separate entries in the source; they are usually repeats but may differ in a detail not shown here. Equal entries are not always repeated. “Also recorded” adds a separate entry of the source. Where two headings read alike, the source gives them in different places.

Experiments:
mOR203-1 [1] = assay: Vapor response of mOR-functionalized carbon nanotube transistor; conditions: for NT device response: FIG. 12A
mOR174-9 = target: T1, mOR174-9 (Mus musculus, UniProt Q920P2); assay: as above
T1 sequence (Q920P2 1-313): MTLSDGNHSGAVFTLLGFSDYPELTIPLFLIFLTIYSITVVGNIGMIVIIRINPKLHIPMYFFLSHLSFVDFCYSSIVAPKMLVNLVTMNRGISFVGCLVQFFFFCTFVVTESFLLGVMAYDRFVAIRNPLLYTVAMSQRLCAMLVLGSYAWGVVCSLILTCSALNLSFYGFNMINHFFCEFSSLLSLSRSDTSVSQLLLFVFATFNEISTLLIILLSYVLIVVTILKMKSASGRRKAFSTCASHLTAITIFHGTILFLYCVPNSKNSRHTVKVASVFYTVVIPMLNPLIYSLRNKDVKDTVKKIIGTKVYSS

[2] = Control vapor response of bare nanotube devices and devices with Ni-NTA and empty digitonin micelles; conditions: bare NT transistors and devices treated with Ni-NTA and empty digitonin micelles
mOR256-17 [3] = target: T2, mOR256-17 (Mus musculus, UniProt P23275); conditions: cited from earlier work
T2 sequence (P23275 1-312): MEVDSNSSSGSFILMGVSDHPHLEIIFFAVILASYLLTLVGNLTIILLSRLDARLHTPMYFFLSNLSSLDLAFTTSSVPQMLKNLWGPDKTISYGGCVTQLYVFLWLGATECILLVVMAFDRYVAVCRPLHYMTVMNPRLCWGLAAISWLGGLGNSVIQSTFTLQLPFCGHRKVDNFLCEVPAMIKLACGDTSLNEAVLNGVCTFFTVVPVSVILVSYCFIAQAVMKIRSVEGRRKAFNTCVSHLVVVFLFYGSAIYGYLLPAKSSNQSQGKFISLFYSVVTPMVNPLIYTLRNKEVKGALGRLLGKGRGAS

mOR203-1 [4] = conditions: mOR203-1 expressed in HEK cells; cited from earlier work
[5] = tested on: mouse olfactory receptor proteins (mORs); assay: Vapor response of mOR-functionalized NT devices, mOR not specified; type: binding; conditions: all three mORs
mOR256-17 [6] = target: T2, mOR256-17; assay: Xenopus oocyte expression with robotic electrophysiology; conditions: mOR 256-17
mOR256-17 [7] = target: T2, mOR256-17; assay: Vapor response of mOR-functionalized carbon nanotube transistor, high-speed data acquisition; type: binding; design: made in house; host or cells: Sf9 insect cells (Bac-to-Bac, pFastBac HT, Invitrogen); conditions: cyclohexanone 2250 ppm, mOR 256-17 in nanodiscs
[8] = mOR203-1 in digitonin micelles, single sensor, FIG. 4

With `C=CCc1ccc(O)c(OC)c1` [eugenol] the change in conductance (mOR203-1 [1]; [8]) was “positive changes in conductance”, the “NT device response shared by both packaging methods” value (mOR174-9) was “expected response” and the “sensing response (change in device current)” value (mOR174-9) was “large positive responses; also recorded: large positive sensing response”. The “response of control devices without mOR” value [2] was “no change in conductance”.

In the case of `CCCCCC(C)=O` [2-heptanone], the “response of mOR256-17 according to published reports” value (from here on “response of mOR256-17 according”) (mOR256-17 [3]) is listed as “not”, the “NT device response with both packaging methods” value (mOR203-1 [1]; mOR 203-1, surfactant stabilized and nanodisc stabilized) is listed as “expected response” and the NT device response (mOR203-1 [1]; mOR203-1 in digitonin micelles) is listed as “strong response”. The change in conductance (mOR203-1 [1]; [8]) was “negative changes in conductance” and the HEK data response (mOR203-1 [4]) was “strong response”.

In the case of `O=C1CCCCC1` [cyclohexanone], the “response of mOR256-17 according” value (mOR256-17 [3]) is given as “responds”, the “response of the inventive devices” value [5] is given as “strong response” and the “oocyte measurement response, in words” value (mOR256-17 [6]) is given as “show a response”. For the same compound, the “response time constant, first of double exponential fit (FIG. 11D)” value (mOR256-17 [7]) was 2.06 ± 0.01 s, the “response time constant, second of double exponential fit (FIG. 11D)” value (mOR256-17 [7]) was 25.51 ± 0.04 s and the “sensing response time constant, first of double exponential fit (FIG. 3)” value (mOR256-17 [7]) was 9.1 s and 9.08 ± 0.04 s. The “sensing response time constant, second of double exponential fit (FIG. 3)” value (mOR256-17 [7]) was 41.2 s and 41.2 ± 0.4 s, the “NT device response shared by both packaging methods” value (mOR174-9; mOR 174-9, surfactant stabilized and nanodisc stabilized) was “response shared between the two packaging methods” and the “response of control devices without mOR” value [2] was “small response”.

In the case of `COC(=O)c1ccccc1` [methyl benzoate], the change in conductance (mOR203-1 [1]) is reported as “no change in conductance”.

For `CC(=O)c1ccccc1` [acetophenone], the NT device response (mOR203-1 [1]; mOR203-1 in digitonin micelles) is listed as “lack of response” and the HEK data response (mOR203-1 [4]) is listed as “lack of response”.

For `CCCCCCC=O` [heptanal], the “response of mOR256-17 according” value (mOR256-17 [3]) is given as “not”, the NT device response (mOR203-1 [1]; mOR203-1 in digitonin micelles) is given as “lack of response” and the HEK data response (mOR203-1 [4]) is given as “lack of response”.

In the case of `CCCCCOC(C)=O` [n-amyl acetate], the change in conductance (mOR203-1 [1]; [8]) is reported as “negative changes in conductance”.
